Measured values as given in PubChem BioAssay (NCI).
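Following 48 hours of exposure in 96-well plates, responses at five concentrations were used to interpolate endpoints linearly. GI50 is the concentration that inhibits growth by half. At the TGI there is no net growth.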

How the values were obtained:
Experiment in all cases: growth of human tumour cells (NCI), 48 h
[1] = tested on: 786-0 renal
[2] = tested on: A498 renal
[3] = tested on: A549 NSCLC
[4] = tested on: ACHN renal
[5] = tested on: BT-549 breast
[6] = tested on: CAKI-1 renal
[7] = tested on: CCRF-CEM leukemia
[8] = tested on: COLO 205 colon
[9] = tested on: DU-145 prostate
[10] = tested on: EKVX NSCLC
[11] = tested on: HCC-2998 colon
[12] = tested on: HCT-116 colon
[13] = tested on: HCT-15 colon
[14] = tested on: HOP-62 NSCLC
[15] = tested on: HOP-92 NSCLC
[16] = tested on: HS 578T breast
[17] = tested on: HT29 colon
[18] = tested on: IGROV1 ovarian
[19] = tested on: K-562 leukemia
[20] = tested on: KM12 colon
[21] = tested on: M14 melanoma
[22] = tested on: MALME-3M melanoma
[23] = tested on: MCF7 breast
[24] = tested on: MDA-MB-231 breast
[25] = tested on: MDA-MB-435
[26] = tested on: MOLT-4 leukemia
[27] = tested on: NCI-H226 lung
[28] = tested on: NCI-H23 lung
[29] = tested on: NCI-H460 lung
[30] = tested on: NCI-H522 lung
[31] = tested on: NCI/ADR-RES ovarian
[32] = tested on: OVCAR-3 ovarian
[33] = tested on: OVCAR-5 ovarian
[34] = tested on: OVCAR-8 ovarian
[35] = tested on: PC-3 prostate
[36] = tested on: RPMI-8226 leukemia
[37] = tested on: RXF 393 renal
[38] = tested on: SF-268 CNS
[39] = tested on: SF-295 CNS
[40] = tested on: SF-539 CNS
[41] = tested on: SK-MEL-2 melanoma
[42] = tested on: SK-MEL-28 melanoma
[43] = tested on: SK-MEL-5 melanoma
[44] = tested on: SK-OV-3 ovarian
[45] = tested on: SN12C renal
[46] = tested on: SNB-19 CNS
[47] = tested on: SNB-75 CNS
[48] = tested on: SR leukemia
[49] = tested on: SW-620 colon
[50] = tested on: T-47D breast
[51] = tested on: TK-10 renal
[52] = tested on: U251 CNS
[53] = tested on: UACC-257 melanoma
[54] = tested on: UACC-62 melanoma
[55] = tested on: UO-31 renal

With COc1cccc(/C(COc2ccc3c(c2)oc(=O)c2ccccc23)=N\O)c1 the GI50 [1] was 16.9 µM, the TGI [1] was 58 µM and the GI50 [2] was 30.5 µM. For the same molecule, the TGI [2] was 81.8 µM, the GI50 [3] was 16.9 µM and the TGI [3] was 51.1 µM. It also gave a GI50 [4] of 26.7 µM, a TGI [4] greater than 100 µM and a GI50 [5] of 23 µM. It also gave a TGI [5] of 57.9 µM, a GI50 [6] of 26.1 µM and a TGI [6] of 77.2 µM. It also gave a GI50 [7] of 23.2 µM, a TGI [7] greater than 100 µM and a GI50 [8] of 25.8 µM. It also gave a TGI [8] of 75.9 µM, a GI50 [9] of 16.9 µM and a TGI [9] of 60.7 µM. For the same molecule, the GI50 [10] was 12.5 µM, the TGI [10] was 66.2 µM and the GI50 [11] was 44.1 µM. It also gave a TGI [11] greater than 100 µM, a GI50 [12] of 13.2 µM and a TGI [12] of 33.4 µM. It also gave a GI50 [13] of 37.2 µM, a TGI [13] greater than 100 µM and a GI50 [14] of 37 µM. It also gave a TGI [14] greater than 100 µM, a GI50 [15] of 71.8 µM and a TGI [15] greater than 100 µM. It also gave a GI50 [16] of 67.1 µM, a TGI [16] greater than 100 µM and a GI50 [17] of 29.6 µM. For the same molecule, the TGI [17] was greater than 100 µM, the GI50 [18] was 28.4 µM and the TGI [18] was 58.5 µM. The GI50 [19] was 13.6 µM, the TGI [19] was 85.3 µM and the GI50 [20] was 15.1 µM. For the same molecule, the TGI [20] was 39.1 µM, the GI50 [21] was 32 µM and the TGI [21] was greater than 100 µM. The GI50 [22] was 33 µM, the TGI [22] was 90.1 µM and the GI50 [23] was greater than 100 µM. For the same molecule, the TGI [23] was greater than 100 µM, the GI50 [24] was 22.2 µM and the TGI [24] was 64.5 µM. For the same molecule, the GI50 [25] was 19.9 µM, the TGI [25] was 52.8 µM and the GI50 [26] was 6.63 µM. For the same molecule, the TGI [26] was 35 µM, the GI50 [27] was 27.7 µM and the TGI [27] was 62 µM. It also gave a GI50 [28] of 33.6 µM, a TGI [28] greater than 100 µM and a GI50 [29] greater than 100 µM. It also gave a TGI [29] greater than 100 µM, a GI50 [30] of 20.6 µM and a TGI [30] of 61.3 µM. The GI50 [31] was 20 µM, the TGI [31] was greater than 100 µM and the GI50 [32] was 45 µM. The TGI [32] was greater than 100 µM, the GI50 [33] was greater than 100 µM and the TGI [33] was greater than 100 µM. It also gave a GI50 [34] of 20.8 µM, a TGI [34] of 54 µM and a GI50 [35] of 29.5 µM. It also gave a TGI [35] greater than 100 µM, a GI50 [36] of 30.3 µM and a TGI [36] greater than 100 µM. For the same molecule, the GI50 [37] was 18.4 µM, the TGI [37] was 38.3 µM and the GI50 [38] was greater than 100 µM. It also gave a TGI [38] greater than 100 µM, a GI50 [39] of 33.3 µM and a TGI [39] greater than 100 µM. It also gave a GI50 [40] of 18.3 µM, a TGI [40] of 44.3 µM and a GI50 [41] of 28.6 µM. For the same molecule, the TGI [41] was 69 µM, the GI50 [42] was 84.7 µM and the TGI [42] was greater than 100 µM. The GI50 [43] was 17.1 µM, the TGI [43] was 35.7 µM and the GI50 [44] was greater than 100 µM. The TGI [44] was greater than 100 µM, the GI50 [45] was 32.8 µM and the TGI [45] was 96 µM. It also gave a GI50 [46] of 52 µM, a TGI [46] greater than 100 µM and a GI50 [47] of 25.7 µM. It also gave a TGI [47] of 76.7 µM, a GI50 [48] of 10.3 µM and a TGI [48] greater than 100 µM. It also gave a GI50 [49] of 42.5 µM, a TGI [49] greater than 100 µM and a GI50 [50] of 29.4 µM. For the same molecule, the TGI [50] was greater than 100 µM, the GI50 [51] was 33.7 µM and the TGI [51] was greater than 100 µM. The GI50 [52] was 34.4 µM, the TGI [52] was greater than 100 µM and the GI50 [53] was 25 µM. The TGI [53] was 61.1 µM, the GI50 [54] was 24.8 µM and the TGI [54] was 82.1 µM. The GI50 [55] was 17.3 µM and the TGI [55] was 34.3 µM.
